The values below come from article PMC8375220 (Peptides, 2021).

Data set [1] concerns SARS-CoV-2 spike pseudovirion. The following applies: cited from earlier work.
Data set [2] has as its system SARS-CoV-2 spike pseudovirions.
The next data set has as its target SARS-CoV-2 spike RBD (Severe acute respiratory syndrome coronavirus 2, UniProt P0DTC2). In words: biochemical. The format is binding.
The subject of data set [3] is Human umbilical vein endothelial cells (HUVECs). Nature of the data set: HUVEC viability. It counts as cell-based.
In a further data set the test system is BALB/c mice. In words: In vivo toxicity after intranasal administration. Also noted: species or system mouse. Particulars: 2.5 mg/kg single intranasal dose.

Read-outs that look alike come from different tables or passages of the source. Where no end group is shown, it is not given here.

Turning to LL37, the “IC50, SARS-CoV-2 spike pseudovirion infection” value in data set [1] is 4.74 µg/mL.

In general, Kd refers to a measure of binding affinity in units of concentration. A high value points to a looser complex. Turning to GKGDFRI [GK-7, GKGDFRI], in data set [2] (spike pseudovirions, 12 h), the “IC50, inhibition of SARS-CoV-2 spike pseudovirion infection” value is 2.96 µg/mL. In addition, at SARS-CoV-2 spike RBD, binding was characterised by a dissociation constant (Kd) of 25.1 nM. In addition, the HUVEC survival entry in data set [3] (24 h, doses up to 200 μg/mL, CCK-8) is given as “did not affect cell survival”. Besides, the “fold of highest non-cytotoxic dose (200 μg/mL) over pseudovirion IC50” value in data set [3] (HUVECs 24 h versus IC50 2.96 μg/mL) is on record as “approximately 68 fold”. For the same substance, the “effect on ALT, AST, blood urea and creatinine contents” value in the data set on BALB/c mice is “minor effects”. In the data set on BALB/c mice (day 7), the “HE staining of major organs” value is recorded as “no pathological changes”; the “effect on RBC, WBC and platelet counts in the blood” value is on record as “minor effects”; the “effect on organ index (heart, liver, spleen, lungs, kidneys)” value is recorded as “minor effects”.

Regarding ACE2, the “IC50, inhibition of SARS-CoV-2 spike pseudovirion infection” value in data set [2] was 0.067 µg/mL.
